In the supplement of paper PMC13380429:

Tests used:
Details in all cases: 72 h
Vero E6 [1] = assay: relative viability EC50 (midpoint between 100% and the lowest measured viability); higher = less toxic
Caco-2 [2] = assay: as above
Calu-3 [3] = assay: as above
U2OS [4] = assay: as above
HepG2 [5] = assay: as above
Vero E6 [6] = assay: drug sensitivity score (DSS) for viability; higher = more toxic; extreme values may be limits of the assay
Caco-2 [7] = assay: as above
Calu-3 [8] = assay: as above
U2OS [9] = assay: as above
HepG2 [10] = assay: as above
Vero E6 [11] = assay: cell viability relative to DMSO; higher = less toxic
Caco-2 [12] = assay: as above
Calu-3 [13] = assay: as above
U2OS [14] = assay: as above
HepG2 [15] = assay: as above

Structure (SMILES) | relative viability EC50 (Vero E6 [1]) [µM] | relative viability EC50 (Caco-2 [2]) [µM] | relative viability EC50 (Calu-3 [3]) [µM] | relative viability EC50 (U2OS [4]) [µM] | relative viability EC50 (HepG2 [5]) [µM] | drug sensitivity score (Vero E6 [6]) | drug sensitivity score (Caco-2 [7]) | drug sensitivity score (Calu-3 [8]) | drug sensitivity score (U2OS [9]) | drug sensitivity score (HepG2 [10]) | cell viability (Vero E6 [11]; 1 nM) [%] | cell viability (Vero E6 [11]; 10 nM) [%] | cell viability (Vero E6 [11]; 100 nM) [%] | cell viability (Vero E6 [11]; 1000 nM) [%] | cell viability (Vero E6 [11]; 10000 nM) [%] | cell viability (Caco-2 [12]; 1 nM) [%] | cell viability (Caco-2 [12]; 10 nM) [%] | cell viability (Caco-2 [12]; 100 nM) [%] | cell viability (Caco-2 [12]; 1000 nM) [%] | cell viability (Caco-2 [12]; 10000 nM) [%] | cell viability (Calu-3 [13]; 1 nM) [%] | cell viability (Calu-3 [13]; 10 nM) [%] | cell viability (Calu-3 [13]; 100 nM) [%] | cell viability (Calu-3 [13]; 1000 nM) [%] | cell viability (Calu-3 [13]; 10000 nM) [%] | cell viability (U2OS [14]; 1 nM) [%] | cell viability (U2OS [14]; 10 nM) [%] | cell viability (U2OS [14]; 100 nM) [%] | cell viability (U2OS [14]; 1000 nM) [%] | cell viability (U2OS [14]; 10000 nM) [%] | cell viability (HepG2 [15]; 1 nM) [%] | cell viability (HepG2 [15]; 10 nM) [%] | cell viability (HepG2 [15]; 100 nM) [%] | cell viability (HepG2 [15]; 1000 nM) [%] | cell viability (HepG2 [15]; 10000 nM) [%]
O=C(OCCN1CCOCC1)c1cccnc1Nc1cccc(C(F)(F)F)c1 [morniflumate] | > 10 | > 10 | > 10 | > 10 | > 10 | 0 | 0.5 | 0 | 0 | 0 | 107 | 100 | 102 | 105 | 99.3 | 120 | 103 | 99 | 102 | 80.1 | 91.9 | 97.1 | 102 | 106 | 108 | 96.5 | 104 | 97.8 | 97.8 | 97.3 | 90.8 | 93.8 | 87.3 | 94.7 | 88.4
NCCCCCC(O)(P(=O)(O)O)P(=O)(O)O [neridronic-acid] | > 10 | > 10 | > 10 | > 10 | > 10 | 0 | 0.6 | 0 | 0 | 0.3 | 91.5 | 95.8 | 92.8 | 94.2 | 96.8 | 108 | 95 | 88.9 | 107 | 76.5 | 90.2 | 83.3 | 92 | 93.9 | 106 | 99.9 | 95.9 | 98.8 | 92.8 | 108 | 100 | 110 | 111 | 97.9 | 86.2
N#C/C(=C1/SC[C@@H](c2ccc(Cl)cc2Cl)S1)n1ccnc1 [luliconazole] | > 10 | > 10 | > 10 | > 10 | > 10 | 0 | 0 | 0 | 0 | 0 | 101 | 99 | 93.8 | 102 | 94.5 | 102 | 98.1 | 96.7 | 90.6 | 89.7 | 95.8 | 109 | 96.8 | 95.7 | 89.6 | 100 | 100 | 98.9 | 96.7 | 96.9 | 104 | 105 | 97.5 | 105 | 96
CC(c1cc2ccccc2s1)N(O)C(N)=O (stereo not given) [zileuton] | > 10 | > 10 | > 10 | > 10 | > 10 | 0 | 0 | 0 | 0 | 0 | 103 | 105 | 107 | 101 | 99.7 | 93.7 | 96.3 | 93.3 | 100 | 91 | 89.5 | 90.6 | 102 | 96.1 | 94.6 | 97.1 | 98.7 | 96.9 | 102 | 96.4 | 109 | 95.1 | 101 | 94.2 | 102
CC(NC(C)(C)C)C(=O)c1cccc(Cl)c1 (stereo not given) [bupropion] | > 10 | > 10 | > 10 | > 10 | > 10 | 1.3 | 0 | 0 | 0 | 0 | 107 | 105 | 102 | 92.1 | 81.7 | 90.3 | 90.6 | 86.4 | 105 | 91.6 | 104 | 96.3 | 101 | 106 | 101 | 95.1 | 96 | 99 | 94.4 | 93.8 | 100 | 103 | 103 | 105 | 95
O=C(Cc1ccc(-c2ccc(OCCN3CCOCC3)cc2)cn1)NCc1ccccc1 [KX2-391] | 0.196 | 0.284 | 0.222 | 0.339 | 0.143 | 15.8 | 11.2 | 10.4 | 14.3 | 14.9 | 91.7 | 93.2 | 88.3 | 24.5 | 27.2 | 102 | 92.3 | 91.7 | 45.3 | 39.2 | 96.8 | 90.8 | 82.8 | 54.5 | 42 | 97.5 | 94.8 | 96.4 | 24.5 | 19.5 | 107 | 113 | 80.8 | 34.5 | 38.5
CC(C)CCC[C@@H](C)[C@H]1CC[C@H]2[C@@H]3CCC4=CC(=NO)CC[C@]4(C)[C@H]3CC[C@]12C [olesoxime] | > 10 | > 10 | > 10 | > 10 | > 10 | 0 | 0 | 0 | 0 | 0 | 97.2 | 98.6 | 96.5 | 98.6 | 94.3 | 99.2 | 87.1 | 102 | 97.6 | 99.1 | 97.3 | 95.6 | 90.7 | 100 | 93.9 | 101 | 95.9 | 98 | 95.3 | 100 | 100 | 96.5 | 95.3 | 103 | 97.4
